From the NIST ThermoML archive (doi:10.1016/j.jct.2009.05.010)
“And” between values parts separate entries of the source, which are not always exact repeats. Equal values may be shown once.

Settings: Crystal, Calculated from knudsen effusion weight loss

O=[N+]([O-])c1cc(Br)ccc1Br [1,4-dibromo-2-nitrobenzene]
Settings | vapor or sublimation pressure
302.14 K | 9.9e-05 kPa and 9.7e-05 kPa
304.16 K | 0.000121 kPa and 0.000125 kPa and 0.000123 kPa
306.15 K | 0.000167 kPa and 0.000166 kPa and 0.000163 kPa
308.15 K | 0.000204 kPa and 0.000205 kPa and 0.000203 kPa
310.14 K | 0.00026 kPa and 0.000264 kPa and 0.000261 kPa
312.14 K | 0.000327 kPa and 0.000332 kPa and 0.000329 kPa
314.14 K | 0.000418 kPa and 0.000419 kPa
316.14 K | 0.000522 kPa and 0.000527 kPa and 0.000524 kPa
318.15 K | 0.000666 kPa and 0.000675 kPa and 0.000673 kPa
320.15 K | 0.000884 kPa and 0.000858 kPa and 0.000838 kPa
322.14 K | 0.001072 kPa and 0.001068 kPa and 0.001063 kPa
